Where two headings read alike, the source gives them in different places.
Test system: Ambrosia artemisiifolia
Assay: Test Example 1: seeds on filter paper moistened with chemical solution, herbicidal effect visually evaluated
Format: in vivo
Details: visually evaluated 6 days after treatment
Description: As the compound (1), 1-methoxy-3-methyl-6-(1,1-dioxido-8-(trifluoromethyl)thiochroman-5-yl)-7-oxa-3,4-diazabicyclo[4.1.0]hept-4-en-2-one (Compound (I-3)) was used.
The compound (I) or compound (II) was prepared into a 5% emulsion using DMF (containing 1.5% Tween) and diluted with water to a prescribed dosage concentration. Commercially available preparations were dissolved in water and adjusted to a prescribed dosage concentration.
Seeds were soaked in 0.6% sodium hypochlorite for a predetermined time for surface sterilization and washed with water for use (seed disinfection). Seeds of Ambrosia artemisiifolia were used for the test.
Filter paper was placed on a cup (diameter: 10 cm, height: 4 cm) with a lid and moistened with 8 ml of chemical solution, and seeds were sown thereon, and after covering with a lid, grown in a constant temperature room.
The herbicidal effects were visually evaluated, 6 days after the treatment, as the herbicidal effect (%), by comparing with a state of an untreated group using a total of 21 scores of withering index from 0 to 20 (0: mortality rate equivalent to that of the untreated group, 20: mortality rate of 100%).
In addition, the expected values of the herbicidal effects were calculated from the herbicidal effects in a case where the compound (I) alone was applied and the herbicidal effects in a case where the compound (II) alone was applied by using the Colby's formula (Colby, S. R., Calculating synergistic and antagonistic responses of herbicide combinations, Weeds, 15, pp. 20-22 (1967)).
M indicates an herbicidal effect (%) in the application of the compound (I) alone, N indicates an herbicidal effect (%) in the application of the compound (II) alone, and E indicates an expected value (%) of the herbicidal effect in the combined application of the compound (T) and the compound (TT). When the actual measured value (%) of the herbicidal effect in the combined application of the compound (I) and the compound (II) is greater than the expected value E, it can be regarded that the combined application of the compound (I) and the compound (II) has a synergistic effect.

[1] = Ambrosia artemisiifolia, 144 h, compound applied alone, amount of active ingredient 3.1 ppm, read-out: Herbicidal effect (%)
[2] = applied alone, amount of active ingredient 0.8 ppm
[3] = Ambrosia artemisiifolia, 144 h, compound applied alone, amount of active ingredient 0.8 ppm, read-out: Herbicidal effect (%)
[4] = Ambrosia artemisiifolia, 144 h, applied alone, amount of active ingredient 50 ppm, read-out: Herbicidal effect (%)
[5] = Ambrosia artemisiifolia, 144 h, read-out: Herbicidal effect (%), applied alone, amount of active ingredient 12.5 ppm
[6] = Ambrosia artemisiifolia, 144 h, applied alone, amount of active ingredient 0.2 ppm, read-out: Herbicidal effect (%)
[7] = compound applied alone, amount of active ingredient 12.5 ppm
[8] = Ambrosia artemisiifolia, 144 h, applied alone, amount of active ingredient 0.8 ppm, read-out: Herbicidal effect (%)
[9] = Ambrosia artemisiifolia, 144 h, compound applied alone, amount of active ingredient 0.2 ppm, read-out: Herbicidal effect (%)
[10] = Ambrosia artemisiifolia, 144 h, applied alone, amount of active ingredient 12.5 ppm, read-out: Herbicidal effect (%)
[11] = Ambrosia artemisiifolia, 144 h, compound applied alone, amount of active ingredient 0.012 ppm
[12] = compound applied alone, amount of active ingredient 0.2 ppm

2,4-D amine
Herbicidal effect (%) (applied alone, amount of active ingredient 0.05 ppm): 20%

Cc1ccccc1CO[C@@H]1C[C@@]2(C(C)C)CC[C@]1(C)O2 (racemic) [Cinmethylin]
pest or weed control at 3.1 ppm [1]: 50%

CCCCC(CC)COC(=O)COc1ccc(Cl)cc1Cl (stereo not drawn) [2,4-D 2-ethylhexyl ester]
Herbicidal effect (%) [2]: 50%

Nc1c([N+](=O)[O-])ccc(Oc2ccccc2)c1Cl [Aclonifen]
pest or weed control at 50 ppm (Ambrosia artemisiifolia, 144 h, compound applied alone, amount of active ingredient 50 ppm, read-out: Herbicidal effect (%)): 20%

CCc1cccc(CC)c1N(COC)C(=O)CCl [Alachlor]
pest or weed control at 0.8 ppm [3]: 20%

CC(C)c1nn(C(=O)NC(C)(C)C)c(=O)n1N [Amicarbazone]
Herbicidal effect (%) (applied alone, amount of active ingredient 50 ppm): 0%

Nc1nc[nH]n1 [Amitrole]
pest or weed control at 3.1 ppm [1]: 20%

COC(=O)NS(=O)(=O)c1ccc(N)cc1 [Asulam]
pest or weed control at 3.1 ppm [1]: 20%

CC(C)N1C(=O)c2ccccc2NS1(=O)=O [Bentazon]
pest or weed control at 200 ppm (Ambrosia artemisiifolia, 144 h, applied alone, amount of active ingredient 200 ppm): 20%

N#Cc1cc(Br)c(O)c(Br)c1 [Bromoxynil]
pest or weed control at 3.1 ppm (Ambrosia artemisiifolia, 144 h, applied alone, amount of active ingredient 3.1 ppm, read-out: Herbicidal effect (%)): 0%

CCOC(=O)C(Cl)Cc1cc(-n2nc(C)n(C(F)F)c2=O)c(F)cc1Cl (stereo not drawn) [Carfentrazone-ethyl]
pest or weed control at 0.8 ppm (Ambrosia artemisiifolia, 144 h, read-out: Herbicidal effect (%), applied alone, amount of active ingredient 0.8 ppm): 50%

Cc1ccc(NC(=O)N(C)C)cc1Cl [Chlorotoluron]
pest or weed control at 50 ppm [4]: 40%

CCSC(C)CC1CC(=O)C(/C(CC)=N/OC/C=C/Cl)=C(O)C1 (stereo not drawn) [Clethodim]
pest or weed control at 12.5 ppm [5]: 0%

CC1(C)CON(Cc2ccccc2Cl)C1=O [Clomazone]
pest or weed control at 0.2 ppm [6]: 10%

Cc1cccc(C2CC2)c1Oc1nnc(Cl)cc1OC(=O)N1CCOCC1 [Cyclopyrimorate]
Herbicidal effect (%) [7]: 40%

COc1c(Cl)ccc(Cl)c1C(=O)O [Dicamba]
pest or weed control at 0.8 ppm [8]: 30%

O=C(Nc1ccc(F)cc1F)c1cccnc1Oc1cccc(C(F)(F)F)c1 [Diflufenican]
pest or weed control at 0.2 ppm [9]: 10%

C/C(=N\NC(=O)Nc1cc(F)cc(F)c1)c1ncccc1C(=O)[O-].[Na+] [Diflufenzopyr-sodium]
Herbicidal effect (%) [7]: 20%

COC[C@H](C)N(C(=O)CCl)c1c(C)csc1C [Dimethenamid-P]
Herbicidal effect (%) (compound applied alone, amount of active ingredient 0.8 ppm): 30%

c1cc[n+]2c(c1)-c1cccc[n+]1CC2 [Diquat]
pest or weed control at 0.2 ppm (Ambrosia artemisiifolia, 144 h, read-out: Herbicidal effect (%), compound applied alone, amount of active ingredient 0.2 ppm): 30%

CCOC(=O)COc1ncccc1Oc1cc(-n2c(=O)cc(C(F)(F)F)n(C)c2=O)c(F)cc1Cl [Epyrifenacil]
Herbicidal effect (%) (compound applied alone, amount of active ingredient 0.0125 ppm): 80%

Cc1ccn2nc(S(=O)(=O)Nc3c(F)cccc3F)nc2n1 [Flumetsulam]
pest or weed control at 12.5 ppm [10]: 40%

C#CCN1C(=O)COc2cc(F)c(N3C(=O)C4=C(CCCC4)C3=O)cc21 [Flumioxazin]
pest or weed control at 0.05 ppm (Ambrosia artemisiifolia, 144 h, applied alone, amount of active ingredient 0.05 ppm, read-out: Herbicidal effect (%)): 80%

NC(=O)c1nc(-c2ccccc2)n(-c2ccc(Cl)c(COCC(F)(F)C(F)(F)F)c2)n1 [Flupoxam]
pest or weed control at 0.012 ppm [11]: 65%

Nc1c(Cl)c(F)nc(OCC(=O)O)c1Cl [Fluroxypyr]
pest or weed control at 0.8 ppm [8]: 40%

COc1cc(OC)nc(NC(=O)NS(=O)(=O)c2cc(NC=O)ccc2C(=O)N(C)C)n1 [Foramsulfuron]
pest or weed control at 0.8 ppm [8]: 65%

CP(=O)(O)CCC(N)C(=O)O (stereo not drawn) [Glufosinate-ammonium]
pest or weed control at 12.5 ppm [5]: 20%

O=C(O)CNCP(=O)(O)O [Glyphosate]
pest or weed control at 12.5 ppm [5]: 20%

COC(=O)c1nc(-c2ccc(Cl)c(OC)c2F)cc(N)c1Cl [Halauxifen-methyl]
Herbicidal effect (%) (compound applied alone, amount of active ingredient 0.012 ppm): 70%

COC(=O)c1c(Cl)nn(C)c1S(=O)(=O)NC(=O)Nc1nc(OC)cc(OC)n1 [Halosulfuron-methyl]
pest or weed control at 0.05 ppm (Ambrosia artemisiifolia, 144 h, read-out: Herbicidal effect (%), compound applied alone, amount of active ingredient 0.05 ppm): 30%

COC(=O)C(C)Oc1ccc(Oc2ncc(C(F)(F)F)cc2Cl)cc1 (stereo not drawn) [Haloxyfop-methyl]
pest or weed control at 12.5 ppm [5]: 10%

CN(C)c1nc(=O)n(C2CCCCC2)c(=O)n1C [Hexazinone]
pest or weed control at 3.1 ppm [1]: 10%

CCC(C)(CC)c1cc(NC(=O)c2c(OC)cccc2OC)on1 [Isoxaben]
pest or weed control at 0.2 ppm [9]: 75%

CS(=O)(=O)c1cc(C(F)(F)F)ccc1C(=O)c1cnoc1C1CC1 [Isoxaflutole]
pest or weed control at 0.0125 ppm (Ambrosia artemisiifolia, 144 h, compound applied alone, amount of active ingredient 0.0125 ppm): 40%

CON(C)C(=O)Nc1ccc(Cl)c(Cl)c1 [Linuron]
pest or weed control at 12.5 ppm (Ambrosia artemisiifolia, 144 h, compound applied alone, amount of active ingredient 12.5 ppm, read-out: Herbicidal effect (%)): 10%

Cc1cc(Cl)ccc1OCC(=O)O [MCPA]
Herbicidal effect (%) (applied alone, amount of active ingredient 0.2 ppm): 30%

CS(=O)(=O)c1ccc(C(=O)C2C(=O)CCCC2=O)c([N+](=O)[O-])c1 [Mesotrione]
pest or weed control at 0.2 ppm [9]: 50%

CCc1cccc(C)c1N(C(=O)CCl)C(C)COC (stereo not drawn) [Metolachlor]
pest or weed control at 0.8 ppm [3]: 10%

CSc1nnc(C(C)(C)C)c(=O)n1N [Metribuzin]
pest or weed control at 50 ppm [4]: 0%

COc1cc(OC)nc(NC(=O)NS(=O)(=O)c2ncccc2C(=O)N(C)C)n1 [Nicosulfuron]
pest or weed control at 0.8 ppm [3]: 60%

CCC(CC)Nc1c([N+](=O)[O-])cc(C)c(C)c1[N+](=O)[O-] [Pendimethalin]
pest or weed control at 0.8 ppm [8]: 20%

Nc1c(Cl)c(Cl)nc(C(=O)O)c1Cl [Picloram]
pest or weed control at 0.8 ppm [8]: 70%

O=C(Nc1ccc(F)cc1)c1cccc(Oc2cccc(C(F)(F)F)c2)n1 [Picolinafen]
Herbicidal effect (%) (applied alone, amount of active ingredient 3.1 ppm): 30%

CCCN(CCC)C(=O)SCc1ccccc1 [Prosulfocarb]
pest or weed control at 0.8 ppm [8]: 20%

FC(F)c1cc(-c2c(Cl)cccc2Oc2ncc(Cl)cn2)on1 [Rimisoxafen]
Herbicidal effect (%) [12]: 25%

CCS(=O)(=O)c1cccnc1S(=O)(=O)NC(=O)Nc1nc(OC)cc(OC)n1 [Rimsulfuron]
pest or weed control at 0.2 ppm [6]: 20%

CC(C)N(C)S(=O)(=O)NC(=O)c1cc(-n2c(=O)cc(C(F)(F)F)n(C)c2=O)c(F)cc1Cl [Saflufenacil]
pest or weed control at 0.0125 ppm (Ambrosia artemisiifolia, 144 h, applied alone, amount of active ingredient 0.0125 ppm): 60%

CCC/C(=N\OCC)C1=C(O)CC(CC(C)SCC)CC1=O (stereo not drawn) [Sethoxydim]
pest or weed control at 0.8 ppm (Ambrosia artemisiifolia, 144 h, read-out: Herbicidal effect (%), compound applied alone, amount of active ingredient 0.8 ppm): 0%

CCNc1nc(Cl)nc(NCC)n1 [Simazine]
pest or weed control at 50 ppm [4]: 30%

Cc1nn(-c2cc(NS(C)(=O)=O)c(Cl)cc2Cl)c(=O)n1C(F)F [Sulfentrazone]
pest or weed control at 0.012 ppm [11]: 0%

CNC(=O)N(C)c1nnc(C(C)(C)C)s1 [Tebuthiuron]
pest or weed control at 50 ppm (Ambrosia artemisiifolia, 144 h, read-out: Herbicidal effect (%), compound applied alone, amount of active ingredient 50 ppm): 20%

CC/C(=N\OC/C=C/Cl)C1=C(O)CC(C2CCOCC2)CC1=O (stereo not drawn) [Tepraloxydim]
pest or weed control at 3.1 ppm (Ambrosia artemisiifolia, 144 h, read-out: Herbicidal effect (%), compound applied alone, amount of active ingredient 3.1 ppm): 10%

CCNc1nc(Cl)nc(NC(C)(C)C)n1 [Terbuthylazine]
pest or weed control at 50 ppm [4]: 0%

CN1C[C@H](c2cccc(C(F)(F)F)c2)[C@@H](C(=O)Nc2ccccc2F)C1=O [Tetflupyrolimet]
Herbicidal effect (%) (compound applied alone, amount of active ingredient 3.1 ppm): 70%

COC(=O)c1csc(C)c1S(=O)(=O)NC(=O)n1nc(OC)n(C)c1=O [Thiencarbazone-methyl]
Herbicidal effect (%) [2]: 30%

Cc1c(C(=O)c2cnn(C)c2O)ccc(S(C)(=O)=O)c1C1=NOCC1 [Topramezone]
Herbicidal effect (%) [12]: 40%

CC(C)N(C(=O)SCC(Cl)=C(Cl)Cl)C(C)C [Tri-allate]
pest or weed control at 12.5 ppm [10]: 20%

Reference: patent US20240130368A1, “HERBICIDAL COMPOSITION” (Nippon Soda Co., Ltd., priority 2021, published 2024)
